Results taken from the NIST ThermoML archive (doi:10.1016/j.fluid.2017.03.011).
± gives the expanded uncertainty stated by the source.

Experiments:
[1] = refractive index (Na D-line) (dimensionless); an = ratio of the nth substance listed; details: 101 kPa, Liquid, Standard Abbe refractometry, a2 = 3
[2] = an = ratio of the nth substance listed; details: 101 kPa, Liquid, a2 = 3; for electrical conductivity: Alternating current cell with electrodes; for viscosity: Falling or rolling sphere viscometry; for speed of sound: Sing-around technique in a fixed-path interferometer; for mass density: Vibrating tube method

CCC[N+](CCC)(CCC)Cc1ccccc1.[Cl-] [benzyltripropylammonium chloride] + Oc1ccccc1
Details | electrical conductivity, [2] [S/m] | mass density, [2] [kg/m3] | refractive index, [1] | speed of sound, [2] [m/s] | viscosity, [2] [mPa·s]
293.15 K | 0.0213 ± 0.0009 | 1060.26 ± 0.96 | 1.5486 ± 0.0008 | 1699.7 ± 2.2 | 638.4 ± 55
298.15 K | 0.0295 ± 0.0012 | 1056.98 ± 0.95 | 1.5471 ± 0.0008 | 1679.8 ± 2.2 | 381.5 ± 27
303.15 K | 0.0397 ± 0.0016 | 1053.73 ± 0.95 | 1.5452 ± 0.0008 | 1661.7 ± 2.1 | 237.1 ± 13
308.15 K | 0.0523 ± 0.0021 | 1050.47 ± 0.94 | 1.5436 ± 0.0008 | 1644.5 ± 2.1 | 156.7 ± 6.3
313.15 K | 0.0669 ± 0.0027 | 1047.19 ± 0.93 | 1.542 ± 0.0008 | 1628 ± 2.1 | 107 ± 3
318.15 K | 0.0838 ± 0.0034 | 1043.91 ± 0.93 | 1.5403 ± 0.0008 | 1611.9 ± 2.1 | 76.8 ± 1.4
323.15 K | 0.0999 ± 0.004 | 1040.64 ± 0.92 | 1.5386 ± 0.0008 | 1596.2 ± 2.1 | 57.6 ± 0.7
328.15 K | 0.118 ± 0.0047 | 1037.37 ± 0.91 | 1.5369 ± 0.0008 | 1580.7 ± 2.1 | 43.1 ± 0.6
333.15 K | 0.138 ± 0.0055 | 1034.12 ± 0.91 | 1.5352 ± 0.0008 | 1565.5 ± 2.1 | 32.6 ± 0.4
338.15 K | 0.162 ± 0.0065 | 1030.87 ± 0.9 | 1.5334 ± 0.0008 | 1550.5 ± 2.1 | 25.8 ± 0.3
343.15 K | 0.183 ± 0.0074 | 1027.64 ± 0.89 | 1.5317 ± 0.0008 | 1536.1 ± 2.1 | 20.4 ± 0.3

CCC[N+](CCC)(CCC)Cc1ccccc1.[Cl-] [benzyltripropylammonium chloride] + CC(O)C(=O)O
Details | electrical conductivity, [2] [S/m] | mass density, [2] [kg/m3] | refractive index, [1] | speed of sound, [2] [m/s] | viscosity, [2] [mPa·s]
293.15 K | 0.0011 ± 0.0001 | 1120.61 ± 12 | 1.4944 ± 0.0015 | 1658.2 ± 6.5 | –
298.15 K | 0.0018 ± 0.0001 | 1117.05 ± 12 | 1.4926 ± 0.0015 | 1640.8 ± 6.5 | –
303.15 K | 0.003 ± 0.0001 | 1113.49 ± 12 | 1.4908 ± 0.0015 | 1624.7 ± 6.5 | 2276.7 ± 300
308.15 K | 0.0047 ± 0.0002 | 1109.92 ± 12 | 1.4892 ± 0.0015 | 1607.9 ± 6.5 | 1288.3 ± 150
313.15 K | 0.0071 ± 0.0003 | 1106.36 ± 12 | 1.4876 ± 0.0015 | 1592.5 ± 6.5 | 780.5 ± 77
318.15 K | 0.0103 ± 0.0004 | 1102.71 ± 11 | 1.4858 ± 0.0015 | 1577.6 ± 6.5 | 489.2 ± 41
323.15 K | 0.0146 ± 0.0006 | 1099.19 ± 11 | 1.4844 ± 0.0015 | 1563.7 ± 6.5 | 319 ± 22
328.15 K | 0.0201 ± 0.0008 | 1095.66 ± 11 | 1.4824 ± 0.0015 | 1550.1 ± 6.5 | 215.6 ± 13
333.15 K | 0.0267 ± 0.0011 | 1092.1 ± 11 | 1.4811 ± 0.0015 | 1537.3 ± 6.5 | 150.6 ± 7.5
338.15 K | 0.035 ± 0.0014 | 1088.54 ± 11 | 1.4791 ± 0.0015 | 1525.1 ± 6.5 | 108.5 ± 4.6
343.15 K | 0.0443 ± 0.0018 | 1084.99 ± 11 | 1.4778 ± 0.0015 | 1513.6 ± 6.5 | 81.3 ± 3

CCC[N+](CCC)(CCC)Cc1ccccc1.[Cl-] [benzyltripropylammonium chloride] + OCCO
Details | electrical conductivity, [2] [S/m] | mass density, [2] [kg/m3] | refractive index, [1] | speed of sound, [2] [m/s] | viscosity, [2] [mPa·s]
293.15 K | 0.0734 ± 0.003 | 1063.63 ± 0.97 | 1.4981 ± 0.0008 | 1762.4 ± 2.2 | 327.9 ± 21
298.15 K | 0.0883 ± 0.0036 | 1060.58 ± 0.96 | 1.4965 ± 0.0008 | 1746.5 ± 2.2 | 229.2 ± 12
303.15 K | 0.105 ± 0.0042 | 1057.52 ± 0.96 | 1.4952 ± 0.0008 | 1731 ± 2.2 | 164.6 ± 6.9
308.15 K | 0.125 ± 0.005 | 1054.44 ± 0.95 | 1.4939 ± 0.0008 | 1715.9 ± 2.2 | 121 ± 3.8
313.15 K | 0.146 ± 0.0059 | 1051.35 ± 0.94 | 1.4924 ± 0.0008 | 1701.1 ± 2.2 | 90.8 ± 2.1
318.15 K | 0.17 ± 0.0068 | 1048.27 ± 0.94 | 1.4911 ± 0.0008 | 1686.4 ± 2.2 | 70.6 ± 1.1
323.15 K | 0.2 ± 0.008 | 1045.19 ± 0.93 | 1.4895 ± 0.0008 | 1671.9 ± 2.2 | 54.4 ± 0.6
328.15 K | 0.228 ± 0.0091 | 1042.11 ± 0.92 | 1.4879 ± 0.0008 | 1657.5 ± 2.1 | 42.1 ± 0.6
333.15 K | 0.26 ± 0.01 | 1039.03 ± 0.92 | 1.4864 ± 0.0008 | 1643.3 ± 2.1 | 33.5 ± 0.4
338.15 K | 0.292 ± 0.012 | 1035.95 ± 0.91 | 1.4849 ± 0.0008 | 1629.2 ± 2.1 | 27 ± 0.4
343.15 K | 0.328 ± 0.013 | 1032.88 ± 0.9 | 1.4831 ± 0.0008 | 1615.7 ± 2.1 | 22.2 ± 0.3

CCC[N+](CCC)(CCC)Cc1ccccc1.[Cl-] [benzyltripropylammonium chloride] + OCC(O)CO
Details | electrical conductivity, [2] [S/m] | mass density, [2] [kg/m3] | refractive index, [1] | speed of sound, [2] [m/s] | viscosity, [2] [mPa·s]
293.15 K | 0.0058 ± 0.0002 | 1133.02 ± 0.87 | 1.5051 ± 0.0008 | 1898.3 ± 2 | –
298.15 K | 0.0085 ± 0.0004 | 1129.97 ± 0.87 | 1.5036 ± 0.0008 | 1868.9 ± 2 | –
303.15 K | 0.0117 ± 0.0005 | 1126.92 ± 0.86 | 1.5026 ± 0.0008 | 1844.9 ± 2 | 1890.5 ± 230
308.15 K | 0.016 ± 0.0007 | 1123.81 ± 0.86 | 1.5011 ± 0.0008 | 1824.4 ± 1.9 | 1179.6 ± 130
313.15 K | 0.022 ± 0.0009 | 1120.62 ± 0.85 | 1.4999 ± 0.0008 | 1806.5 ± 1.9 | 779.8 ± 73
318.15 K | 0.0289 ± 0.0012 | 1117.51 ± 0.84 | 1.4982 ± 0.0008 | 1790.1 ± 1.9 | 519.3 ± 41
323.15 K | 0.0374 ± 0.0015 | 1114.45 ± 0.84 | 1.4966 ± 0.0008 | 1774.7 ± 1.9 | 359.2 ± 24
328.15 K | 0.048 ± 0.0019 | 1111.39 ± 0.83 | 1.4953 ± 0.0008 | 1760.1 ± 1.9 | 251.6 ± 14
333.15 K | 0.0596 ± 0.0024 | 1108.32 ± 0.83 | 1.4936 ± 0.0008 | 1745.9 ± 1.9 | 180.1 ± 8
338.15 K | 0.0741 ± 0.003 | 1105.24 ± 0.82 | 1.4922 ± 0.0008 | 1732.2 ± 1.9 | 131.4 ± 4.5
343.15 K | 0.0894 ± 0.0036 | 1102.17 ± 0.82 | 1.4908 ± 0.0008 | 1719.2 ± 1.9 | 97 ± 2.4
